In assay [1] the target is T1, human dopamine transporter (hDAT) (Homo sapiens, UniProt Q01959).
T1 construct: expressed in transfected cells; host or cells: HEK-293, stably transfected; membranes
Kind of assay: Human transporter radioligand binding, hDAT ([3H]WIN35428, HEK-293 membranes). The following applies: HCl salts of test compounds; n ≥ 3, values marked b n = 1; read-out: Equilibrium Dissociation Constant (KD) for Transporter Binding (Geometric Mean; nM ± SEM) hDAT (D). On the procedure:
(§1) HEK-293 cells expressing the recombinant hSERT or hDAT were incubated with Dulbecco's modified Eagles medium (MEM) supplemented with 0.1 mM nonessential amino acid solution for MEM, 5% v/v fetal bovine serum and […] penicillin/streptomycin solution. Cells expressing the hNET transporter were incubated with Dulbecco's modified Eagles medium supplemented with 10% v/v fetal bovine serum and 100 U/mL penicillin/streptomycin solution and 2 mM L-glutamine. All cells were grown until 70-80% confluent on 175 cm^2 flasks in a humidified 10% CO2/90% air environment at 37° C., with the selecting antibiotic Geneticin sulfate at […]. The cells were incubated in 10% CO2, 90% air at 37° C. and 100% humidity.
(§2) Cell membranes containing hSERT, hNET, or hDAT were prepared from the cell lines to assay ligand binding for each of the transporters. […] The washed cells were incubated for 5 minutes at 37° C. in 10 mL solution 1 containing 100 mM ethylene glycol-bis N,N,N′,N′-tetraacetic acid (EGTA). The cells were then scraped from the flask surface with a rubber spatula, placed into a centrifuge tube, and collected by centrifugation at 1000×g for 5 minutes at 4° C. The resulting supernatant was discarded, and the cell pellet was resuspended in 0.5 to1.0 mL of the appropriate binding buffer (described below). The resuspended cell pellet was homogenized using a Polytron for 10 seconds at setting 6. The resulting homogenate was centrifuged at about 36,000×g for 10 minutes at 4° C. The supernatant was discarded, and the pellet was resuspended in the same volume of the appropriate binding buffer and centrifuged again. The supernatant was discarded, and the final pellet containing cell membranes was resuspended in the appropriate binding buffer and stored at −80° C. until use.
To assess binding to the cloned hDAT, cells expressing hDAT were homogenized in 50 mM Tris-HCl with 120 mM NaCl (pH 7.4). The binding reaction contained 15 μg cell membrane protein, 1 nM [^3H]WIN35428 (WIN35428, [N-methyl-^3H], specific activity 85.9 Ci/mmol; PerkinElmer, Boston, Mass.), and varying concentrations of either unlabeled WIN35428 or the test compound. A reaction to determine non-specific binding contained 15 μg cell membrane protein, 1 nM [^3H]WIN35428, and 10 μM final concentration of unlabeled WIN35428. The reactions were incubated at 22° C. for 1 hour. Following incubation, the reactions were terminated by rapid filtration through separate GF/B filter strips pretreated with 0.2% polyethylenimine in a 48-well Brandel cell harvester. The cell membrane-containing filter strips were then rinsed five times with ice-cold 0.9% NaCl. After rinsing, individual filters were cut from the strip and placed in a scintillation vial containing 6.5 mL of Redi-Safe (Beckman-Coulter, Fullerton, Calif.). Radioactivity was measured with a Beckman liquid scintillation counter (LS 6000TA).
(§3) Following the radioligand binding assays, the data were analyzed using the
(§4) The program was modified to calculate the Hill coefficient (nH). Data are presented as geometric mean±S.E.M. of at least three independent experiments. One-component models and two-component models were compared using the root mean square error of each fit and the F test.

The target in assay [2] is T2, human serotonin transporter (hSERT) (Homo sapiens, UniProt P31645).
T2 construct: expressed in transfected cells; host or cells: HEK-293, stably transfected; membranes
T2 sequence (P31645 whole entry): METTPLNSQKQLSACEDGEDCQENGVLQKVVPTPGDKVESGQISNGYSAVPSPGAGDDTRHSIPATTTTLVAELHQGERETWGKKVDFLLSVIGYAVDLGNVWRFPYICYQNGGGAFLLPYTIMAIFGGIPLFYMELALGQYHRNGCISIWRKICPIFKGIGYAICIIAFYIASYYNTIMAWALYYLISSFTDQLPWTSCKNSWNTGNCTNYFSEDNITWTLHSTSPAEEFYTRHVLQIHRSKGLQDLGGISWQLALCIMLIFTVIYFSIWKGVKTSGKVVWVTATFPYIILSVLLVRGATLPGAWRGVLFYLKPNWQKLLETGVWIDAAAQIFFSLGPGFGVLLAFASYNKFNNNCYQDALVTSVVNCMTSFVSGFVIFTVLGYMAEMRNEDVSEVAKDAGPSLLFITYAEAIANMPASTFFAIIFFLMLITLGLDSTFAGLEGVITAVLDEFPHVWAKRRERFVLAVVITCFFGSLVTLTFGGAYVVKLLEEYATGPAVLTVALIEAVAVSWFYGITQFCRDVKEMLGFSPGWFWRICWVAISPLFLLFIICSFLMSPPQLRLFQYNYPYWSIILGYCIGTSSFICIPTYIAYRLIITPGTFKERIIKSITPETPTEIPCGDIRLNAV
Kind of assay: Human transporter radioligand binding, hSERT ([3H]citalopram, HEK-293 membranes). Particulars: HCl salts of test compounds; n ≥ 3, values marked b n = 1; read-out: Equilibrium Dissociation Constant (KD) for Transporter Binding (Geometric Mean; nM ± SEM) hSERT (S). The protocol:
as §1, §2
(§5) Radioligand binding assays for the indicated transporters were performed as follows. To assess binding to the cloned hSERT, cells expressing hSERT were homogenized in 50 mM Tris-HCl with 120 mM NaCl and 5 mM KCl (pH 7.4). The binding reaction consisted of 10 μg cell membrane protein, 1.0 nM [^3H]citalopram (citalopram, [N-methyl-^3H], specific activity 79.0 Ci/mmol; PerkinElmer, Boston, Mass.), and varying concentrations of either unlabeled citalopram or the test compound. A reaction to determine non-specific binding consisted of 10 μg cell membrane protein, 0.5 nM [^3H]citalopram, and 1 μM final concentration of unlabeled citalopram. The reactions were incubated at 22° C. for 60 minutes. Following incubation, the reactions were terminated by rapid filtration through separate GF/B filter strips pretreated with 0.2% polyethylenimine in a 48-well Brandel cell harvester. The cell membrane-containing filter strips were then rinsed five times with ice-cold 0.9% NaCl. After rinsing, individual filters were cut from the strip and placed in a scintillation vial containing 6.5 mL of Redi-Safe (Beckman-Coulter, Fullerton, Calif.). Radioactivity was measured with a Beckman liquid scintillation counter (LS 6000TA).
as §3, §4

The test system of assay [3] is hSERT (S), hNET (N), hDAT (D). Kind of assay: Comparison of binding potency across the three human transporters. Particulars: for Potency (rank order of transporter binding): S = hSERT, N = hNET, D = hDAT, order by KD; for Potency Range: highest KD / lowest KD among hSERT, hNET, hDAT. On the procedure:
as §1, §2, §5
(§6) To assess binding to the cloned hNET, cells expressing hNET were homogenized in 50 mM Tris-HCl with 300 mM NaCl and 5 mM KCl (pH 7.4). The binding reaction consisted of 5 μg cell membrane protein, 0.5 nM [^3H]nisoxetine (nisoxetine HCl, [N-methyl-^3H], specific activity 82.0 Ci/mmol; Amersham, Arlington Hts., Ill.), and varying concentrations of either unlabeled nisoxetine or the test compound. A reaction to determine non-specific binding consisted of 5 μg cell membrane protein, 0.5 nM [^3H]nisoxetine, and 1 μM final concentration of unlabeled nisoxetine. The reactions were incubated at 22° C. for 60 minutes. Following incubation, the reactions were terminated by rapid filtration through separate GF/B filter strips pretreated with 0.2% polyethylenimine in a 48-well Brandel cell harvester. The cell membrane-containing filter strips were then rinsed five times with ice-cold 0.9% NaCl.

The target in assay [4] is T3, human norepinephrine transporter (hNET) (Homo sapiens, UniProt P23975).
T3 construct: expressed in transfected cells; host or cells: HEK-293, stably transfected; membranes
T3 sequence (P23975 whole entry): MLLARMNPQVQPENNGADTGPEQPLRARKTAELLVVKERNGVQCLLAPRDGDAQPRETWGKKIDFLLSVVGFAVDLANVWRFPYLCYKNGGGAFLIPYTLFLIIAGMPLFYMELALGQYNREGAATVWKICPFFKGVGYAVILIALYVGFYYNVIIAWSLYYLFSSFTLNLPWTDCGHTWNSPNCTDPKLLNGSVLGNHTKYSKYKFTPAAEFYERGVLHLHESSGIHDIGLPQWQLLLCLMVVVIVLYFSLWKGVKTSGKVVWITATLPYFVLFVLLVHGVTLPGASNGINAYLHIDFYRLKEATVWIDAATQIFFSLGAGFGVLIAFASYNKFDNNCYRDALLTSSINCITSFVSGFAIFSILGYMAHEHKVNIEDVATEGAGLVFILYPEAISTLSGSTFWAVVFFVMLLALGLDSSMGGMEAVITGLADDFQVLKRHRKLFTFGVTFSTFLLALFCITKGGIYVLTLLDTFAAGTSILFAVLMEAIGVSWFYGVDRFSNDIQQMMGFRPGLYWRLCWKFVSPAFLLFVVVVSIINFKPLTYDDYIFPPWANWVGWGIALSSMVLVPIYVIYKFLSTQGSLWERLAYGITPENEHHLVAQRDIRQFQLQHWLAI
Kind of assay: Human transporter radioligand binding, hNET ([3H]nisoxetine, HEK-293 membranes). The following applies: HCl salts of test compounds; n ≥ 3, values marked b n = 1; read-out: Equilibrium Dissociation Constant (KD) for Transporter Binding (Geometric Mean; nM ± SEM) hNET (N). The protocol: as §1, §2
as §6, with “NaCl. After rinsing, individual filters were cut from the strip and placed in a scintillation vial containing 6.5 mL of Redi-Safe (Beckman-Coulter, Fullerton, Calif.). Radioactivity was measured with a Beckman liquid scintillation counter (LS 6000TA).” for “NaCl.”
as §3, §4

Experimental findings from patent US20120220665A1, “Inhibiting Neurotransmitter Reuptake” (MAYO FOUNDATION FOR MEDICAL EDUCATION AND RESEARCH, priority 2009, published 2012) are described below.

Structures are written as SMILES.

T1 sequence (Q01959 whole entry): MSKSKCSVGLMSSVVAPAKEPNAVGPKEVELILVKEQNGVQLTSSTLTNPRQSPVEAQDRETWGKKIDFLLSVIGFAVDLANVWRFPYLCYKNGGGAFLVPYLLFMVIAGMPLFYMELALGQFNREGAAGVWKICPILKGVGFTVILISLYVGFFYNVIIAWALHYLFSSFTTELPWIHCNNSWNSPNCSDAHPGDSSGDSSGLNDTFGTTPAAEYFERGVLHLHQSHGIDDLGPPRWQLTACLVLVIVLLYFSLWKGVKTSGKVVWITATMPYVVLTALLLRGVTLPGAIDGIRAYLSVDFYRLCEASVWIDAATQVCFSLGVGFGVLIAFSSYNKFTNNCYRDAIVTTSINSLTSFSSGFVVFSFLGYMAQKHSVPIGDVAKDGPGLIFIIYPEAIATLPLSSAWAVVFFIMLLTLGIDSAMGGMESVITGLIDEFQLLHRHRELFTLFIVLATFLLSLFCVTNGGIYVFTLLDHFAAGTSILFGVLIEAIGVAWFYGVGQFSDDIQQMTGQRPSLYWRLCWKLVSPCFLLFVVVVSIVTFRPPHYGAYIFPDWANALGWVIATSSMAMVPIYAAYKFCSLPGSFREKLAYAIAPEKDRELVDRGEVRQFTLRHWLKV

The term Kd denotes the equilibrium constant for the complex coming apart. `CNC[C@H](c1ccccc1)[C@H](O)c1ccc(F)cc1` [MCJ001-F—Ph—OH-SS/RR, (1S,2S)-1-(4-fluorophenyl)-3-(methylamino)-2-phenylpropan-1-ol]: the Kd in assay [1] amounted to 107 nM; in assay [2], 1260 nM; in assay [4], 514 nM. Moreover, the “Potency (rank order of transporter binding)” value in assay [3] is on record as “D > N > S”. Moreover, in assay [3], the “Potency Range” value is given as 12.
For `CN(C)C[C@H](c1ccc2ccccc2c1)[C@@H](F)c1ccccc1` [MCJ002-F-RS, (2S,3R)-3-fluoro-N,N-dimethyl-2-(naphthalen-2-yl)-3-phenylpropan-1-amine], in that order: 280 ± 20 nM, 7 ± 0.5 nM, 45 ± 3 nM, “S > N > D” and 40.
For `CNC[C@H](c1ccccc1)[C@@H](O)c1ccc2ccccc2c1` [MCJ001-NA-Ph—OH-RS/SR, (1R,2S/1S,2R)-3-(methylamino)-1-(naphthalen-2-yl)-2-phenylpropan-1-ol], in that order: 8900 ± 20 nM, 75 ± 2 nM, 7620 nM, “S > N > D” and 120.
For the compound `CNC[C@H](c1ccc2ccccc2c1)[C@@H](O)c1ccc(F)cc1` [MCJ001-4F—Ph—OH-RS/SR, (1R,2S)-1-(4-fluorophenyl)-3-(methylamino)-2-(naphthalen-2-yl)propan-1-ol], the values for the Kd in assay [1], in assay [2] and in assay [4] were 250 ± 40 nM, 27 ± 4 nM and 49 ± 4 nM, respectively. Further, the “Potency (rank order of transporter binding)” value in assay [3] is listed as “S > N > D”. Also, the “Potency Range” value in assay [3] stood at 9.
`CCOc1ccccc1OC(c1ccccc1)C1CNCCO1` (stereo not shown) [Reboxetine, reference compound]: the “Potency (rank order of transporter binding)” value in assay [3] is “N > S > D”.
With `CN1Cc2c(N)cccc2C(c2ccccc2)C1` (stereo not shown) [Nomifensine, reference compound], the “Potency (rank order of transporter binding)” value in assay [3] was “N > D > S”.
Take `CN(C)C[C@H](c1ccc2ccccc2c1)[C@H](Cl)c1ccccc1` [MCJ002-Cl-SS, (2S,3S)-3-chloro-N,N-dimethyl-2-(naphthalen-2-yl)-3-phenylpropan-1-amine]: the Kd stood at 270 ± 30 nM in assay [1], 8.3 ± 0.9 nM in assay [2] and 50 ± 8 nM in assay [4]. Also, the “Potency (rank order of transporter binding)” value in assay [3] is listed as “S > N > D”. In assay [3], the “Potency Range” value was 32.
The corresponding values for `CNCC(c1ccccc1)C(O)c1ccc(Br)cc1` [MCJ001-Br—Ph—OH-RS/SR, (1R,2S/1S,2R)-1-(4-bromophenyl)-3-(methylamino)-2-phenylpropan-1-ol] are 1520 nM, 3320 nM, 4500 nM, “D > S > N” and 3.
The corresponding values for `CNC[C@H](c1ccccc1)[C@@H](O)c1ccc(F)cc1` [MCJ001-F—Ph—OH-RS/SR, (1R,2S)-1-(4-fluorophenyl)-3-(methylamino)-2-phenylpropan-1-ol] are 75200 nM, 11900 nM, 2660 nM, “N > S > D” and 28.
For `CNC[C@H](c1ccc2ccccc2c1)[C@@H](OCCCCCCCO[C@@H](c1ccccc1)[C@H](CNC)c1ccc2ccccc2c1)c1ccccc1` [MCJ001-Dimer7-SS, (2S,2′S,3R,3′R)-3,3′-(heptane-1,7-diylbis(oxy))bis(N-methyl-2-(naphthalen-2-yl)-3-phenylpropan-1-amine)], in that order: 180 ± 20 nM, 50 ± 3 nM, 29 ± 1 nM, “N > S > D” and 6.
As to `CCN(CC)C(=O)C1(c2ccccc2)CC1CN` (stereo not shown) [Milnacipran, reference compound], in assay [3], the “Potency (rank order of transporter binding)” value is listed as “S > N > D”.
For `CN(C)C[C@H](c1ccc2ccccc2c1)[C@@H](Cl)c1ccccc1` [MCJ002-Cl-RS, (2S,3R)-3-chloro-N,N-dimethyl-2-(naphthalen-2-yl)-3-phenylpropan-1-amine], the Kd in assay [1] was 390 ± 30 nM; in assay [2], 7.4 ± 0.9 nM; in assay [4], 90 ± 10 nM. The “Potency (rank order of transporter binding)” value in assay [3] was “S > N > D”. The “Potency Range” value in assay [3] is reported as 53.
For `CNCC(c1ccccc1)C(O)c1ccc(Br)cc1` [MCJ001-Br—Ph—OH-SS/RR, (1S,2S/1R,2R)-1-(4-bromophenyl)-3-(methylamino)-2-phenylpropan-1-ol], the figures for the Kd in assay [1] and in assay [2] were 28400 nM and 7300 nM, respectively.
As to `CN(C)CCCN1c2ccccc2CCc2ccccc21` [Imipramine, reference compound], the “Potency (rank order of transporter binding)” value in assay [3] is “S > N > D”.
Still for that read-out and setting: then `CNCC[C@H](Oc1cccc2ccccc12)c1cccs1` [Duloxetine, reference compound], with “S > N > D”.
